Experimental data reported in ChEMBL document CHEMBL1201862, “PubChem BioAssay data set” (2004).
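1) Cells in 96-well plates. 2) Compound, 48 h, 5 concentrations. 3) Linear interpolation between surrounding doses. 4) Unreached endpoint = highest concentration. Here, GI50 denotes the concentration required for 50% inhibition of growth.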 Active and inactive are the calls of the source. No stated cut-off is given here; in the data, active = GI50 up to about 1.1 µM and inactive = higher.

Key:
Assay in all cases: NCI-60 cell line screen, 48 h
UO-31 = test system: UO-31
PC-3 = test system: PC-3
HL-60 = test system: HL-60
RPMI-8226 = test system: RPMI-8226
SF-539 = test system: SF-539
MDA-N = test system: MDA-N
LOX IMVI = test system: LOX IMVI
MDA-MB-435 = test system: MDA-MB-435
NCI-H460 = test system: NCI-H460
T47D = test system: T47D
MOLT-4 = test system: MOLT-4
SN12C = test system: SN12C
SW-620 = test system: SW-620
TK-10 = test system: TK-10
SF-295 = test system: SF-295
OVCAR-3 = test system: OVCAR-3
SR = test system: SR
OVCAR-4 = test system: OVCAR-4
MDA-MB-231 = test system: MDA-MB-231
UACC-257 = test system: UACC-257

SMILES	GI50 (UO-31)	GI50 (PC-3)	GI50 (HL-60)	GI50 (RPMI-8226)	GI50 (SF-539)	GI50 (MDA-N)	GI50 (LOX IMVI)	GI50 (MDA-MB-435)	GI50 (NCI-H460)	GI50 (T47D)	GI50 (MOLT-4)	GI50 (SN12C)	GI50 (SW-620)	GI50 (TK-10)	GI50 (SF-295)	GI50 (OVCAR-3)	GI50 (SR)	GI50 (OVCAR-4)	GI50 (MDA-MB-231)	GI50 (UACC-257)
COc1ccc(OC)c(/C=C/c2cnnc3ccccc23)c1	5.08 µM (inactive)	7.69 µM (inactive)	2.79 µM (inactive)	3.16 µM (inactive)	2.39 µM (inactive)	0.741 µM (active)	3.48 µM (inactive)	0.638 µM (active)	4.11 µM (inactive)	> 10 µM (inactive)	2.65 µM (inactive)	4.17 µM (inactive)	3.06 µM (inactive)	> 10 µM (inactive)	5.4 µM (inactive)	3.94 µM (inactive)	1.51 µM (inactive)	5.48 µM (inactive)	9.46 µM (inactive)	3.39 µM (inactive)
CC(=S)NC1C(Oc2ccc3c(C)cc(=O)oc3c2)OC(CO)C(O)C1O (configuration not stated)	> 100 µM (inactive)	> 100 µM (inactive)	> 100 µM (inactive)	> 100 µM (inactive)	> 100 µM (inactive)	> 100 µM (inactive)	> 100 µM (inactive)	> 100 µM (inactive)	> 100 µM (inactive)	> 100 µM (inactive)	> 100 µM (inactive)	> 100 µM (inactive)	> 100 µM (inactive)	> 100 µM (inactive)	> 100 µM (inactive)	> 100 µM (inactive)	> 100 µM (inactive)	> 100 µM (inactive)	> 100 µM (inactive)	> 100 µM (inactive)
Cc1ccc(NCCN(C)C)c2c(=O)c3cc(O)ccc3oc12	9.2 µM (inactive)	11.8 µM (inactive)	2.29 µM (inactive)	5.08 µM (inactive)	8.28 µM (inactive)	10.7 µM (inactive)	9.53 µM (inactive)	12 µM (inactive)	0.889 µM (active)	16.5 µM (inactive)	1.11 µM (active)	7.59 µM (inactive)	4.12 µM (inactive)	14.6 µM (inactive)	10.9 µM (inactive)	16.5 µM (inactive)	0.083 µM (active)	17 µM (inactive)	9.04 µM (inactive)	18.3 µM (inactive)
Cc1ccc2cccc(-c3cccc4ccccc34)c2n1	14.3 µM (inactive)	29.2 µM (inactive)	3.33 µM (inactive)	13.1 µM (inactive)	24 µM (inactive)	4.2 µM (inactive)	14.9 µM (inactive)	2.69 µM (inactive)	27.5 µM (inactive)	15.8 µM (inactive)	13.2 µM (inactive)	25.6 µM (inactive)	25.2 µM (inactive)	11.3 µM (inactive)	22.9 µM (inactive)	25.2 µM (inactive)	12.6 µM (inactive)	24.9 µM (inactive)	22.9 µM (inactive)	29.9 µM (inactive)
O=[N+]([O-])c1ccc(C[S+]([O-])Cc2ccccc2)cc1 (configuration not stated)	> 100 µM (inactive)	> 100 µM (inactive)	> 100 µM (inactive)	> 100 µM (inactive)	> 100 µM (inactive)	> 100 µM (inactive)	> 100 µM (inactive)	> 100 µM (inactive)	> 100 µM (inactive)	> 100 µM (inactive)	> 100 µM (inactive)	> 100 µM (inactive)	> 100 µM (inactive)	> 100 µM (inactive)	> 100 µM (inactive)	> 100 µM (inactive)	> 100 µM (inactive)	> 100 µM (inactive)	> 100 µM (inactive)	> 100 µM (inactive)
C=C1C(C(O)C[C@H](C)C2O[C@@]3(CCCCO3)CCC2C)O[C@@H]2CCC3(CCC(/C=C/[C@@H](C)C4CC(C)=CC5(O4)O[C@H](C[C@](C)(O)C(=O)O)CCC5O)O3)OC2[C@@H]1O (some centres not stated)	0.0527 µM (active)	0.00545 µM (active)	0.00408 µM (active)	0.00315 µM (active)	0.00254 µM (active)	0.00117 µM (active)	0.004 µM (active)	0.00075 µM (active)	0.00408 µM (active)	0.0326 µM (active)	0.0122 µM (active)	0.0127 µM (active)	0.0134 µM (active)	0.0162 µM (active)	0.00578 µM (active)	0.00239 µM (active)	0.00964 µM (active)	0.0286 µM (active)	0.00411 µM (active)	0.00839 µM (active)
COc1ccc(-c2oc3cc(O)c(OC)c(O)c3c(=O)c2O)cc1 [BETULETOL]	6.46 µM (inactive)	9.55 µM (inactive)	2.9 µM (inactive)	6.1 µM (inactive)	8.32 µM (inactive)	13.7 µM (inactive)	6.19 µM (inactive)	17.9 µM (inactive)	1.74 µM (inactive)	9.75 µM (inactive)	1.85 µM (inactive)	5.6 µM (inactive)	20.5 µM (inactive)	19.5 µM (inactive)	6.08 µM (inactive)	9.38 µM (inactive)	3.08 µM (inactive)	30.2 µM (inactive)	12.9 µM (inactive)	54 µM (inactive)
CC(NC(=O)OC(C)(C)C)C(=O)NC(Cc1ccccc1)C(=O)NCC(=O)ON=C1CCCC1 (configuration not stated)	65.8 µM (inactive)	> 100 µM (inactive)	> 100 µM (inactive)	97.5 µM (inactive)	> 100 µM (inactive)	35.6 µM (inactive)	> 100 µM (inactive)	> 100 µM (inactive)	> 100 µM (inactive)	> 100 µM (inactive)	41.9 µM (inactive)	> 100 µM (inactive)	> 100 µM (inactive)	> 100 µM (inactive)	> 100 µM (inactive)	> 100 µM (inactive)	31 µM (inactive)	> 100 µM (inactive)	43.5 µM (inactive)	> 100 µM (inactive)
O=C(N(O)c1ccccc1Cl)C(O)(c1ccccc1)c1ccccc1	20.6 µM (inactive)	91.6 µM (inactive)	22.6 µM (inactive)	23.8 µM (inactive)	> 100 µM (inactive)	67.1 µM (inactive)	49.3 µM (inactive)	65.2 µM (inactive)	> 100 µM (inactive)	47 µM (inactive)	30.8 µM (inactive)	> 100 µM (inactive)	42.7 µM (inactive)	62.4 µM (inactive)	30.4 µM (inactive)	43.5 µM (inactive)	18.1 µM (inactive)	> 100 µM (inactive)	> 100 µM (inactive)	> 100 µM (inactive)
N/C(CCSCCSCC/C(N)=N\O)=N\O	> 100 µM (inactive)	> 100 µM (inactive)	> 100 µM (inactive)	> 100 µM (inactive)	> 100 µM (inactive)	> 100 µM (inactive)	> 100 µM (inactive)	> 100 µM (inactive)	> 100 µM (inactive)	> 100 µM (inactive)	> 100 µM (inactive)	> 100 µM (inactive)	> 100 µM (inactive)	> 100 µM (inactive)		> 100 µM (inactive)	> 100 µM (inactive)	> 100 µM (inactive)	> 100 µM (inactive)	
OC1CC2CCC(C1)N2CCCN1c2ccccc2Sc2ccc(Cl)cc21 (configuration not stated)	2.46 µM (inactive)	2.12 µM (inactive)	2.26 µM (inactive)	1.87 µM (inactive)	1.84 µM (inactive)	1.87 µM (inactive)	1.7 µM (inactive)	1.73 µM (inactive)	1.75 µM (inactive)	2.23 µM (inactive)	2.29 µM (inactive)	3.73 µM (inactive)	2.43 µM (inactive)	1.66 µM (inactive)	1.75 µM (inactive)	2.67 µM (inactive)	2.2 µM (inactive)	3.69 µM (inactive)	1.84 µM (inactive)	1.29 µM (inactive)
CC1=NN2C(=N)/C(=C/c3ccccc3)C(=O)N=C2S1	> 100 µM (inactive)	> 100 µM (inactive)	> 100 µM (inactive)	> 100 µM (inactive)	> 100 µM (inactive)	> 100 µM (inactive)	> 100 µM (inactive)	> 100 µM (inactive)	> 100 µM (inactive)	> 100 µM (inactive)	> 100 µM (inactive)	> 100 µM (inactive)	> 100 µM (inactive)	> 100 µM (inactive)	> 100 µM (inactive)	> 100 µM (inactive)	> 100 µM (inactive)	> 100 µM (inactive)	> 100 µM (inactive)	> 100 µM (inactive)
CC[C@@]1(OC(=O)C(N)CCCCN)C(=O)OCc2c1cc1n(c2=O)Cc2cc3ccccc3nc2-1 (some centres not stated)	0.0263 µM (active)	0.171 µM (active)	< 0.0132 µM (active)	0.0327 µM (active)	0.0203 µM (active)	0.167 µM (active)	0.0171 µM (active)	0.293 µM (active)	< 0.01 µM (active)	0.0326 µM (active)	< 0.01 µM (active)	< 0.0149 µM (active)	0.04 µM (active)	2.55 µM (inactive)	< 0.0109 µM (active)	0.352 µM (active)	< 0.01 µM (active)	0.332 µM (active)	1.53 µM (inactive)	0.143 µM (active)
O=C(O[C@@H](/C=C/c1ccccc1)P1(=O)N(Cc2ccccc2)[C@H]2CCCC[C@@H]2N1Cc1ccccc1)c1ccccc1	3.01 µM (inactive)	2.43 µM (inactive)	2.39 µM (inactive)	2.29 µM (inactive)	4.57 µM (inactive)	4.22 µM (inactive)	3.54 µM (inactive)	3.21 µM (inactive)	2.01 µM (inactive)	2.44 µM (inactive)		2.53 µM (inactive)	3.69 µM (inactive)	3.52 µM (inactive)	3.15 µM (inactive)	3.48 µM (inactive)	2.86 µM (inactive)	3.59 µM (inactive)	2.29 µM (inactive)	2.86 µM (inactive)
